Test results as given in article PMC8954523 (Pharmaceutics, 2022).

Assay: Hypothetical transfer thermodynamic functions from solvation functions
Assay type: physicochemical
Conditions: 298.15 K; for TΔStr / ΔGtr / ΔHtr / ΔStr / ζHtr / ζTStr: hypothetical
Method: The impact of the specific interactions on the solvation process was estimated by analyzing the thermodynamic functions of the hypothetical transfer from n-hexane—an inert solvent interacting with the drugs only non-specifically—to water, 1-octanol, and ethanol. Besides this, the hypothetic transfer from water to 1-octanol is significant as a model of the drug penetrating through the lipophilic biological membranes. The transferring thermodynamic parameters listed in Table 4 were calculated as a difference (taking into account the sign of the thermodynamic function) between the respective functions in a solvent (1-octanol/water/ethanol) and in n-hexane and between 1-octanol and water.
The relationship between the specific and non-specific solvation thermodynamic contributions was disclosed using the εH and εS parameters calculated as follows:(20) εH=(ΔHspec/ΔHnon−spec)⋅100%where ΔHspec=ΔHtr(n−hexane→solvent)and ΔHnon−spec=ΔHsolv(n−hexane) (21) εS=(ΔSspec/ΔSnon−spec)⋅100%where ΔSspec=ΔStr(n−hexane→solvent)and ΔSnon−spec=ΔSsolv(n−hexane)

`CC(O)(CS(=O)(=O)c1ccc(F)cc1)C(=O)Nc1ccc(C#N)c(C(F)(F)F)c1` (centres unmarked) [BCL, bicalutamide] showed a εH (n-hexane → 1-octanol) of 36.6%, a εS (n-hexane → 1-octanol) of 30.2% and a TΔStr (n-hexane → 1-octanol) of −13.9 kJ⋅mol^−1. The ΔGtr (n-hexane → 1-octanol) was −13.7 kJ⋅mol^−1, the ΔHtr (n-hexane → 1-octanol) was −27.6 kJ⋅mol^−1 and the ΔStr (n-hexane → 1-octanol) was −46.6 J⋅mol^−1⋅K^−1. The ζHtr (n-hexane → 1-octanol) was 66.5%, the ζTStr (n-hexane → 1-octanol) was 33.5% and the εS (n-hexane → ethanol) was 5.0%. For the same compound, the TΔStr (n-hexane → ethanol) was −2.3 kJ⋅mol^−1, the ΔGtr (n-hexane → ethanol) was −18 kJ⋅mol^−1 and the ΔHtr (n-hexane → ethanol) was −20.3 kJ⋅mol^−1. It also gave a ΔStr (n-hexane → ethanol) of −7.7 J⋅mol^−1⋅K^−1, a ζHtr (n-hexane → ethanol) of 89.8% and a ζTStr (n-hexane → ethanol) of 10.2%. The εH (n-hexane → water) was 16.4%, the εS (n-hexane → water) was 37.4% and the TΔStr (n-hexane → water) was −17.2 kJ⋅mol^−1. The ΔGtr (n-hexane → water) was 4.8 kJ⋅mol^−1, the ΔHtr (n-hexane → water) was −12.4 kJ⋅mol^−1 and the ΔStr (n-hexane → water) was −57.7 J⋅mol^−1⋅K^−1. For the same compound, the ζHtr (n-hexane → water) was 41.9%, the ζTStr (n-hexane → water) was 58.1% and the TΔStr (water → 1-octanol) was 3.3 kJ⋅mol^−1. For the same compound, the ΔGtr (water → 1-octanol) was −18.5 kJ⋅mol^−1, the ΔHtr (water → 1-octanol) was −15.2 kJ⋅mol^−1 and the ΔStr (water → 1-octanol) was 11.1 J⋅mol^−1⋅K^−1. For the same compound, the ζHtr (water → 1-octanol) was 82.2% and the ζTStr (water → 1-octanol) was 17.8%.
